{"source": "patent US10995091B2", "about": "(Proximagen, LLC, priority 2010, dated 2021)", "data": [{"molecular_target": "T1, Human CXCR4 transfected HEK293 cells (Homo sapiens, UniProt P61073)", "T1 construct": "expressed in transfected cells; host or cells: HEK293", "T1 sequence (P61073 whole entry)": "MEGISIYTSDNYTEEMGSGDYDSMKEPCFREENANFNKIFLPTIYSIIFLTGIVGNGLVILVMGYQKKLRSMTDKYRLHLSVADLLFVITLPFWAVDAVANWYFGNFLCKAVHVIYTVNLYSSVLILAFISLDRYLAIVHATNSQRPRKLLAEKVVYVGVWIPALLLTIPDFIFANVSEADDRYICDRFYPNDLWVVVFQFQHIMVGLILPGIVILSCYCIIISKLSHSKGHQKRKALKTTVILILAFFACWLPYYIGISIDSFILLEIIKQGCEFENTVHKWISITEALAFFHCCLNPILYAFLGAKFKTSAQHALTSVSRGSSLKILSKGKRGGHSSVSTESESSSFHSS", "assay": "CXCR4 functional calcium assay (calcium flux FLIPR, antagonism of SDF1 response)", "format": "cell-based", "details": "CXCR4 functional activity, antagonism of SDF1 (EC50 concentration), read-out: CXCR4 fKi", "protocol": "The functional activity of test compounds was routinely tested by measuring the ability of compounds to antagonize CXCR4 activity in a dose dependent manner, using a calcium flux Fluorescent Imaging Plate Reader FLIPR assay.\nHuman CXCR4 transfected HEK293 cells were cultured in Dulbecco's modified Eagles medium containing 4.5 g/L glucose, L-glutamine, pyruvate, 50 µg/mL Geneticin and 250 µg/mL hygromycin B and maintained at 37° C. in a humidified, 5% CO2 controlled atmosphere. Subcultivations were performed every 2-3 d.\nAt confluence the cells were lifted using Ca^2+ and Mg^2+ free PBS/0.02% (w/v) EDTA, spun at 1000 rpm for 3 min and resuspended at 2.5×10^5 cells/mL. Cells were plated into a 384 well, poly-d-lysine coated, black with clear bottomed plate (Becton Dickinson) at 7500 cells/well. The plates were incubated overnight at 37° C. under 5% CO2. On the day of the experiment the cells were washed with incubation Buffer (HBSS containing 2.5 mM probenecid, 0.1% w/v BSA and 10 mM HEPES, pH 7.4 at 37° C.). After washing, the cells were loaded with Fluo-4 AM dye (Molecular probes) at 2 µM containing 0.48 µg/mL pluronic acid for 60 min at 37° C. under 5% CO2. After thorough washing with incubation buffer the cells were preincubated for 10 min at 37° C. before use.\nA combined agonist/antagonist protocol was used to measure changes in intracellular calcium concentration. Compound (antagonist) was added to the cell plate using a Fluorometric Imaging Plate Reader (FLIPR) (Molecular Devices, Sunnyvale, Calif., USA). Basal fluorescence was recorded every second for 10 seconds prior to compound addition (10 μl) and fluorescence recorded every second for 1 min then every 6 seconds for a further 1 min. SDF1[…] (EC50 concentration) was then added using the FLIPR and fluorescence recorded as described above. Curve-fitting and parameter estimation were carried out using GraphPad Prism 4.0 (GraphPad Software Inc., San Diego, Calif.).", "units": {"Ki": "µM"}, "values": [{"smiles": "CC(C)N1CCC(N2CCCN(c3cccc(C(=O)NCC4CCOCC4)n3)CC2)CC1", "note": "[Example 1, N-(Oxan-4-ylmethyl)-6-{4-[1-(propan-2-yl)piperidin-4-yl]-1,4-diazepan-1-yl}pyridine-2-carboxamide]", "Ki": "0.1 to 0.5"}, {"smiles": "CC(C)N1CCC(N2CCCN(c3cccc(C(=O)NC4CCOCC4)n3)CC2)CC1", "note": "[Example 2, N-(Oxan-4-yl)-6-{4-[1-(propan-2-yl)piperidin-4-yl]-1,4-diazepan-1-yl}pyridine-2-carboxamide]", "Ki": "0.1 to 0.5"}, {"smiles": "CC(C)N1CCC(N2CCCN(c3cccc(C(=O)NCCCn4ccnc4)n3)CC2)CC1", "note": "[Example 3, N-[3-(1H-Imidazol-1-yl)propyl]-6-{4-[1-(propan-2-yl)piperidin-4-yl]-1,4-diazepan-1-yl}pyridine-2-carboxamide]", "Ki": "0.1 to 0.5"}, {"smiles": "CCNC(=O)c1cccc(N2CCCN(C3CCN(C(C)C)CC3)CC2)n1", "note": "[Example 4, N-Ethyl-6-{4-[1-(propan-2-yl)piperidin-4-yl]-1,4-diazepan-1-yl}pyridine-2-carboxamide]", "Ki": "0.1 to 0.5"}, {"smiles": "CCCNC(=O)c1cccc(N2CCCN(C3CCN(C(C)C)CC3)CC2)n1", "note": "[Example 5, 6-{4-[1-(Propan-2-yl)piperidin-4-yl]-1,4-diazepan-1-yl}-N-propylpyridine-2-carboxamide]", "Ki": "0.02 to 0.1"}, {"smiles": "CC(C)CNC(=O)c1cccc(N2CCCN(C3CCN(C(C)C)CC3)CC2)n1", "note": "[Example 6, N-(2-Methylpropyl)-6-{4-[1-(propan-2-yl)piperidin-4-yl]-1,4-diazepan-1-yl}pyridine-2-carboxamide]", "Ki": "0.1 to 0.5"}, {"smiles": "CCCCNC(=O)c1cccc(N2CCCN(C3CCN(C(C)C)CC3)CC2)n1", "note": "[Example 7, N-Butyl-6-{4-[1-(propan-2-yl)piperidin-4-yl]-1,4-diazepan-1-yl}pyridine-2-carboxamide]", "Ki": "0.02 to 0.1"}, {"smiles": "CC(C)N1CCC(N2CCCN(c3cccc(C(=O)NCCF)n3)CC2)CC1", "note": "[Example 8, N-(2-Fluoroethyl)-6-{4-[1-(propan-2-yl)piperidin-4-yl]-1,4-diazepan-1-yl}pyridine-2-carboxamide]", "Ki": "0.1 to 0.5"}, {"smiles": "CC(C)N1CCC(N2CCCN(c3cccc(C(=O)NCC(F)F)n3)CC2)CC1", "note": "[Example 9, N-(2,2-Difluoroethyl)-6-{4-[1-(propan-2-yl)piperidin-4-yl]-1,4-diazepan-1-yl}pyridine-2-carboxamide]", "Ki": "0.1 to 0.5"}, {"smiles": "CC(C)N1CCC(N2CCCN(c3cccc(C(=O)NCC(F)(F)F)n3)CC2)CC1", "note": "[Example 10, 6-{4-[1-(Propan-2-yl)piperidin-4-yl]-1,4-diazepan-1-yl}-N-(2,2,2-trifluoroethyl)pyridine-2-carboxamide]", "Ki": "0.1 to 0.5"}, {"smiles": "CC(C)N1CCC(N2CCCN(c3cccc(C(=O)NC4CC4)n3)CC2)CC1", "note": "[Example 11, N-Cyclopropyl-6-{4-[1-(propan-2-yl)piperidin-4-yl]-1,4-diazepan-1-yl}pyridine-2-carboxamide]", "Ki": "0.1 to 0.5"}, {"smiles": "CC(C)N1CCC(N2CCCN(c3cccc(C(=O)NCCO)n3)CC2)CC1", "note": "[Example 12, N-(2-Hydroxyethyl)-6-{4-[1-(propan-2-yl)piperidin-4-yl]-1,4-diazepan-1-yl}pyridine-2-carboxamide]", "Ki": "0.1 to 0.5"}, {"smiles": "CC(C)N1CCC(N2CCCN(c3cccc(C(=O)NCCC#N)n3)CC2)CC1", "note": "[Example 13, N-(2-Cyanoethyl)-6-{4-[1-(propan-2-yl)piperidin-4-yl]-1,4-diazepan-1-yl}pyridine-2-carboxamide]", "Ki": "0.1 to 0.5"}, {"smiles": "COCCNC(=O)c1cccc(N2CCCN(C3CCN(C(C)C)CC3)CC2)n1", "note": "[Example 14, N-(2-Methoxyethyl)-6-{4-[1-(propan-2-yl)piperidin-4-yl]-1,4-diazepan-1-yl}pyridine-2-carboxamide]", "Ki": "0.02 to 0.1"}, {"smiles": "COCCCNC(=O)c1cccc(N2CCCN(C3CCN(C(C)C)CC3)CC2)n1", "note": "[Example 15, N-(3-Methoxypropyl)-6-{4-[1-(propan-2-yl)piperidin-4-yl]-1,4-diazepan-1-yl}pyridine-2-carboxamide]", "Ki": "0.1 to 0.5"}, {"smiles": "CC(C)N1CCC(N2CCCN(c3cccc(C(=O)NCCN(C)C)n3)CC2)CC1", "note": "[Example 16, N-[2-(Dimethylamino)ethyl]-6-{4-[1-(propan-2-yl)piperidin-4-yl]-1,4-diazepan-1-yl}pyridine-2-carboxamide]", "Ki": "0.1 to 0.5"}, {"smiles": "CC(C)CN(C)C(=O)c1cccc(N2CCCN(C3CCN(C(C)C)CC3)CC2)n1", "note": "[Example 17, N-Methyl-N-(2-methylpropyl)-6-{4-[1-(propan-2-yl)piperidin-4-yl]-1,4-diazepan-1-yl}pyridine-2-carboxamide]", "Ki": "0.5 to 1"}, {"smiles": "CC(C)N1CCC(N2CCCN(c3cccc(C(=O)N[C@H]4CCOC4)n3)CC2)CC1", "note": "[Example 18, N-[(3S)-Oxolan-3-yl]-6-{4-[1-(propan-2-yl)piperidin-4-yl]-1,4-diazepan-1-yl}pyridine-2-carboxamide]", "Ki": "0.1 to 0.5"}, {"smiles": "CC(C)N1CCC(N2CCCN(c3cccc(C(=O)N[C@@H]4CCOC4)n3)CC2)CC1", "note": "[Example 19, N-[(3R)-Oxolan-3-yl]-6-{4-[1-(propan-2-yl)piperidin-4-yl]-1,4-diazepan-1-yl}pyridine-2-carboxamide]", "Ki": "0.1 to 0.5"}, {"smiles": "CC(C)N1CCC(N2CCCN(c3cccc(C(=O)NC[C@H]4CCCO4)n3)CC2)CC1", "note": "[Example 20, N-[(2R)-Oxolan-2-ylmethyl]-6-{4-[1-(propan-2-yl)piperidin-4-yl]-1,4-diazepan-1-yl}pyridine-2-carboxamide]", "Ki": "0.1 to 0.5"}, {"smiles": "CC(C)N1CCC(N2CCCN(c3cccc(C(=O)N4CCc5ccccc54)n3)CC2)CC1", "note": "[Example 21, 1-[(6-{4-[1-(Propan-2-yl)piperidin-4-yl]-1,4-diazepan-1-yl}pyridin-2-yl)carbonyl]-2,3-dihydro-1H-indole]", "Ki": "0.1 to 0.5"}, {"smiles": "CC(C)N1CCC(N2CCCN(c3cccc(C(=O)N4CCc5ccccc5C4)n3)CC2)CC1", "note": "[Example 22, 2-[(6-{4-[1-(Propan-2-yl)piperidin-4-yl]-1,4-diazepan-1-yl}pyridin-2-yl)carbonyl]-1,2,3,4-tetrahydroisoquinoline]", "Ki": "0.1 to 0.5"}, {"smiles": "CC(C)N1CCC(N2CCCN(c3cccc(C(=O)Nc4ccccc4)n3)CC2)CC1", "note": "[Example 23, N-Phenyl-6-{4-[1-(propan-2-yl)piperidin-4-yl]-1,4-diazepan-1-yl}pyridine-2-carboxamide]", "Ki": "< 0.02"}, {"smiles": "CC(C)N1CCC(N2CCCN(c3cccc(C(=O)Nc4ccccc4O)n3)CC2)CC1", "note": "[Example 24, N-(2-Hydroxyphenyl)-6-{4-[1-(propan-2-yl)piperidin-4-yl]-1,4-diazepan-1-yl}pyridine-2-carboxamide]", "Ki": "0.02 to 0.1"}, {"smiles": "CC(C)N1CCC(N2CCCN(c3cccc(C(=O)Nc4ccc(Cl)cc4)n3)CC2)CC1", "note": "[Example 25, N-(4-Chlorophenyl)-6-{4-[1-(propan-2-yl)piperidin-4-yl]-1,4-diazepan-1-yl}pyridine-2-carboxamide]", "Ki": "0.1 to 0.5"}, {"smiles": "COc1ccc(NC(=O)c2cccc(N3CCCN(C4CCN(C(C)C)CC4)CC3)n2)cc1", "note": "[Example 26, N-(4-Methoxyphenyl)-6-{4-[1-(propan-2-yl)piperidin-4-yl]-1,4-diazepan-1-yl}pyridine-2-carboxamide]", "Ki": "0.02 to 0.1"}, {"smiles": "Cc1ccc(NC(=O)c2cccc(N3CCCN(C4CCN(C(C)C)CC4)CC3)n2)cc1", "note": "[Example 27, N-(4-Methylphenyl)-6-{4-[1-(propan-2-yl)piperidin-4-yl]-1,4-diazepan-1-yl}pyridine-2-carboxamide]", "Ki": "0.02 to 0.1"}]}]}
